Experimental data published in patent US8754115B2, “Fungicidal pyrazoles” (E I du Pont de Nemours and Company, priority 2010, dated 2014).
Marks after values point to notes of the source that are not given here.

How the values were obtained:
Format in all cases: in vivo
Botrytis cinerea = assay: Test A: preventive spray on tomato seedlings, visual disease rating (tomato Botrytis)
Excerpt: (§1) General protocol for preparing test suspensions for Tests A-F: the test compounds were first dissolved in acetone in an amount equal to 3% of the final volume and then suspended at the desired concentration (in ppm) in acetone and purified water (50/50 mix by volume) containing 250 ppm of the surfactant Trem® 014 (polyhydric alcohol esters). The resulting test suspensions were then used in Tests A-F. Spraying a 200 ppm test suspension to the point of run-off on the test plants was the equivalent of a rate of 800 g/ha. Unless otherwise indicated, the rating values indicate a 200 ppm test suspension was used. (An asterisk “*” next to the rating value indicates a 40 ppm test suspension was used.)
(§2) The test suspension was sprayed to the point of run-off on tomato seedlings. The following day the seedlings were inoculated with a spore suspension of Botrytis cinerea (the causal agent of tomato Botrytis) and incubated in saturated atmosphere at 20° C. for 48 h, and then moved to a growth chamber at 24° C. for 3 days, after which time visual disease ratings were made.
(§3) Results for Tests A-F are given in Table A. In the Table, a rating of 100 indicates 100% disease control and a rating of 0 indicates no disease control (relative to the controls). A dash (-) indicates no test results. An asterisk “*” next to the rating value indicates a 40 ppm test suspension was used.

[1] = system: Blumeria graminis f. sp. tritici; assay: Test F: preventive spray on wheat seedlings, visual disease rating (wheat powdery mildew)
Excerpt: as §1
The test suspension was sprayed to the point of run-off on wheat seedlings. The following day the seedlings were inoculated with a spore dust of Blumeria graminis f. sp. tritici, (also known as Erysiphe graminis f. sp. tritici, the causal agent of wheat powdery mildew) and incubated in a growth chamber at 20° C. for 8 days, after which time visual disease ratings were made.
as §3

Septoria tritici = assay: Test D: preventive spray on wheat seedlings, visual disease rating (wheat leaf blotch)
Excerpt: as §1
as §2, with “wheat” for “tomato”, “Septoria tritici” for “Botrytis cinerea”, “wheat leaf blotch)” for “tomato Botrytis)”, “24°” for “20°”, “20°” for “24°”, “19” for “3”
as §3

[2] = system: Puccinia recondite f. sp. tritici; assay: Test E2: preventive spray on wheat seedlings, visual disease rating (wheat leaf rust)
Excerpt: as §1
The test suspension was sprayed to the point of run-off on wheat seedlings. The following day the seedlings were inoculated with a spore suspension of Puccinia recondite f. sp. tritici (the causal agent of wheat leaf rust) and incubated in a saturated atmosphere at 20° C. for 24 h, and then moved to a growth chamber at 20° C. for 7 days, after which time visual disease ratings were made.
as §3

[3] = asterisk: 40 ppm test suspension
[4] = no asterisk: standard test suspension, not 40 ppm, 100 = 100% disease control, 0 = none
[5] = no asterisk: standard test suspension, not 40 ppm

| SMILES | Test A rating (% disease control) (Botrytis cinerea; [3]) | Test F rating (% disease control) [1, 3] | Test D rating (% disease control) (Septoria tritici; [3]) | Test E2 rating (% disease control) [2, 3] | Test A rating (% disease control) (Botrytis cinerea; [4]) [%] | Test F rating (% disease control) [1, 5] [%] | Test D rating (% disease control) (Septoria tritici; [5]) [%] | Test E2 rating (% disease control) [2, 5] [%] |
| --- | --- | --- | --- | --- | --- | --- | --- | --- |
| Cc1nn(C)c(-c2c(Cl)cncc2Cl)c1C(O)c1ccc(F)cc1Cl (centres unmarked) [compound 98] | 94* % | 100* % | 100* % | 100* % |  |  |  |  |
| Cc1nn(C)c(-c2c(F)cccc2Cl)c1C(SC#N)c1ccc(F)cc1Cl (centres unmarked) [Compound 121] | 97* % | 100* % | 100* % | 100* % |  |  |  |  |
| Cc1nn(C)c(-c2c(F)cc(Br)cc2F)c1C(=O)c1ccc(F)cc1F [compound 102] |  |  |  |  | 0 | 97 | 0 | 55 |
| Cc1nn(C)c(-n2ccnc2C)c1C(O)c1ccc(F)cc1F (centres unmarked) [compound 146] |  |  |  |  | 0 | 0 | 18 | 17 |
| COc1nn(C)c(-c2c(F)cc(Cl)cc2F)c1C(O)c1ccc(F)cc1Cl (centres unmarked) [compound 162] | 99* % | 64* % | 100* % | 86* % |  |  |  |  |
| Cc1nn(C)c(-c2c(F)cccc2F)c1C(SC#N)c1ccc(F)cc1F (centres unmarked) [Compound 115] | 88* % | 99* % | 100* % | 94* % |  |  |  |  |
| Cc1nn(C)c(-n2ccnc2Cl)c1C(O)c1ccc(F)cc1F (centres unmarked) [compound 151] |  |  |  |  | 16 | 43 | 0 | 99 |
| Cc1nn(C)c(-c2c(F)cccc2F)c1C(OCC#N)c1ccc(F)cc1Cl (centres unmarked) [Compound 107] | 9* % | 99* % | 99* % | 99* % |  |  |  |  |
| COc1nn(C)c(-c2c(F)cc(F)cc2F)c1C(O)c1ccc(F)cc1Cl (centres unmarked) [compound 152] | 100* % | 100* % | 100* % | 100* % |  |  |  |  |
| C=CCOC(c1ccc(F)cc1Cl)c1c(C)nn(C)c1-c1c(F)cccc1F (centres unmarked) [Compound 109] | 0* % | 97* % | 100* % | 98* % |  |  |  |  |
| Cc1nn(C)c(-c2c(F)cccc2F)c1C(SC#N)c1c(F)cc(F)cc1F (centres unmarked) [Compound 116] | 0* % | 0* % | 78* % | 9* % |  |  |  |  |
| Cc1cc(F)ccc1C(O)c1c(Br)nn(C)c1-c1c(F)cccc1F (centres unmarked) [compound 165] |  |  |  |  | 100 | 100 | 100 | 100 |
| Cn1nc(Br)c(C(O)c2ccc(F)cc2Cl)c1-c1ccc(F)cc1Cl (centres unmarked) [compound 125] |  |  |  |  | 82 | 87 | 100 | 100 |
| Cn1nc(Cl)c(C(O)c2ccc(F)cc2Cl)c1-c1c(F)cccc1F (centres unmarked) [compound 137] |  |  |  |  | 100 | 100 | 100 | 100 |
| Cc1nn(C)c(-c2c(F)cccc2Br)c1C(O)c1ccc(F)cc1Cl (centres unmarked) [compound 94] |  |  |  |  | 99 | 100 | 100 | 100 |
| Cc1nn(C)c(-c2ccc(Cl)cc2Cl)c1C(O)c1ccc(Cl)cc1F (centres unmarked) [compound 101] |  |  |  |  |  | 72 | 100 | 99 |
| COc1nn(C)c(-c2c(F)cccc2F)c1C(O)c1c(F)ccc(F)c1Cl (centres unmarked) [compound 139] | 83* % | 96* % | 100* % | 80* % |  |  |  |  |

| SMILES | Test A rating (% disease control) (Botrytis cinerea; [3]) | Test F rating (% disease control) [1, 3] | Test D rating (% disease control) (Septoria tritici; [3]) | Test E2 rating (% disease control) [2, 3] | Test A rating (% disease control) (Botrytis cinerea; [4]) [%] | Test F rating (% disease control) [1, 5] [%] | Test D rating (% disease control) (Septoria tritici; [5]) [%] | Test E2 rating (% disease control) [2, 5] [%] |
| --- | --- | --- | --- | --- | --- | --- | --- | --- |
| CCOc1nn(C)c(-c2c(F)cccc2F)c1C(O)c1ccc(F)cc1Cl (centres unmarked) [compound 127] |  |  |  |  | 76 | 99 | 100 | 91 |
| Cc1nn(C)c(-c2ccc(F)cc2I)c1C(O)c1ccc(F)cc1Cl (single isomer, unassigned) [compound 103] |  |  |  |  | 99 | 95 | 98 | 96 |
| COCOC(c1ccc(F)cc1Cl)c1c(C)nn(C)c1-c1c(F)cccc1F (centres unmarked) [Compound 110] | 0* % | 99* % | 100* % | 98* % |  |  |  |  |
| Cn1nc(Br)c(C(O)c2ccc(F)cc2F)c1-c1c(F)cccc1F (centres unmarked) [compound 124] |  |  |  |  | 99 | 100 | 100 | 100 |
| Cc1nn(C)c(-c2c(F)cncc2F)c1C(O)c1ccc(F)cc1Cl (centres unmarked) [compound 166] | 99* % | 93* % | 100* % | 99* % |  |  |  |  |
| Cc1nn(C)c(-c2ccc(F)cc2I)c1C(O)c1ccc(F)cc1Cl (single isomer, unassigned) [compound 104] | 0* % | 72* % | 98* % | 97* % |  |  |  |  |
| Cc1nn(C)c(-c2c(Cl)cncc2Cl)c1C(O)c1ccc(F)cc1F (centres unmarked) [compound 167] | 0* % | 0* % | 58* % | 0* % |  |  |  |  |
| Cc1cc(F)ccc1C(O)c1c(C)nn(C)c1-n1ccnc1Cl (centres unmarked) [compound 150] |  |  |  |  | 8 | 0 | 0 | 9 |
| Cn1nc(Cl)c(C(O)c2ccc(F)cc2Cl)c1-c1c(F)cccc1Cl (centres unmarked) [compound 135] |  |  |  |  | 100 | 99 | 100 | 100 |
| Cc1cc(C)n(-c2c(C(O)c3ccc(F)cc3C)c(C)nn2C)n1 (centres unmarked) [compound 158] |  |  |  |  | 0 | 13 | 8 | 0 |
| Cn1nc(Br)c(C(O)c2ccc(F)cc2Br)c1-c1ccc(F)cc1Cl (centres unmarked) [compound 164] |  |  |  |  | 100 | 0 | 100 | 100 |
| COc1nn(C)c(-c2c(F)cccc2F)c1C(O)c1c(F)ccc(F)c1F (centres unmarked) [compound 138] | 66* % | 93* % | 16* % | 55* % |  |  |  |  |
| COc1nn(C)c(-c2c(F)cc(F)cc2F)c1C(O)c1c(F)cccc1Cl (centres unmarked) [compound 155] | 99* % | 99* % | 100* % | 100* % |  |  |  |  |
| Cc1nn(C)c(-c2c(F)cc(Br)cc2F)c1C(O)c1ccc(F)cc1F (centres unmarked) [compound 106] |  |  |  |  | 98 | 0 | 100 | 97 |
| COc1nn(C)c(-c2c(F)cccc2Cl)c1C(O)c1ccc(F)cc1Cl (centres unmarked) [compound 120] |  |  |  |  | 100 | 100 | 100 | 100 |
| Cc1nn(C)c(-c2ccc(F)cc2Cl)c1C(O)c1ccc(F)cc1I (centres unmarked) [compound 99] |  |  |  |  | 97 | 99 | 100 | 100 |
| Cc1nn(C)c(-c2ccc(Cl)cc2Cl)c1C(O)c1ccc(F)cc1Cl (centres unmarked) [compound 100] |  |  |  |  |  | 99 | 100 | 100 |
